Target: T1, Recombinant human α-L-iduronidase protein (Homo sapiens, UniProt P35475)
T1 construct: purchased R&D
T1 sequence (P35475 28-653): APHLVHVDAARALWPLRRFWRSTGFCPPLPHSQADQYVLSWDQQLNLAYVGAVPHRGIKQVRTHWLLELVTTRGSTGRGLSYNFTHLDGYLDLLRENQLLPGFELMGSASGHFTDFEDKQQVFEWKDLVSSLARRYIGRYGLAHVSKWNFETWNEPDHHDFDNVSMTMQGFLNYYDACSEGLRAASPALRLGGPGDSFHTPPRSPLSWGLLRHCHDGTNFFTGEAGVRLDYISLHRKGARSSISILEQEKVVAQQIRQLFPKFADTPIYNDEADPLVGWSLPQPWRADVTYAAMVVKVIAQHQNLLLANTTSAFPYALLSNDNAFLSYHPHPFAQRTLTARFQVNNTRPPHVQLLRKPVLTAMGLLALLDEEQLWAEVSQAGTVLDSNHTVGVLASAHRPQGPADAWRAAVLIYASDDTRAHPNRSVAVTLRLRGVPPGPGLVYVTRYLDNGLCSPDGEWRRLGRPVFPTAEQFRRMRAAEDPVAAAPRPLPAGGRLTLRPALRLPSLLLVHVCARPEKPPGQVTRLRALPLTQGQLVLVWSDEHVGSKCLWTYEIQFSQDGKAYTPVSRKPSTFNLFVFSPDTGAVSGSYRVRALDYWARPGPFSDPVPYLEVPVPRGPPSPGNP
Test: Differential scanning fluorimetry (DSF) thermal stabilization;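 further: Classes count stabilization of α-L-iduronidase despite the GALC label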
Assay type: binding
Settings: ΔTm class
Method: The capacity of Compounds of the Disclosure to stabilize α-L-iduronidase was assessed by differential scanning fluorimetry technique. The thermal denaturation of purified human native enzyme was monitored in the presence of the extrinsic fluorescent probe SYPRO Orange (Sigma-Aldrich, St. Louis, MO). The tested compounds were dissolved in 100% DMSO and diluted into the protein buffer to achieve final concentrations of 1% DMSO.
Recombinant human α-L-iduronidase protein (purchased from R&D) 12.5 µL of 1.5 µM in 100 mM Hepes 20 mM MgCl2 pH 7 (protein final concentration 0.75 µM) with Sypro Orange 10X and 12.5 µl of the different compound solutions were dispensed into 96-well PCR-plates. The intensity of SYPRO Orange fluorescence after a systematic increase of temperature was monitored in the Roche LightCycler® 480 II device (Roche Diagnostics).
The capacity to stabilize α-L-iduronidase is denoted as follows: • ΔTm GALC > 1 is shown as A; • ΔTm GALC between 0.5 and 1 is shown as B; • ΔTm GALC between 0.1 and 0.5 is shown as C; and • ΔTm GALC less than 0.1 is shown as D.

[1] = commercially available Examples 8-37

| SMILES | DSF Activity range (synthetized Examples 1-7) | DSF Activity range [1] |
| --- | --- | --- |
| CN(CC(=O)N(C)c1ccccc1Cl)Cc1nc(O)c2cnn(-c3ccccc3)c2n1 [Example 1, N-(2-chlorophenyl)-2-(((4-hydroxy-1-phenyl-1H-pyrazolo[3,4-d]pyrimidin-6-yl)methyl)(methyl)amino)-N-methylacetamide] | A (ΔTm GALC > 1 is shown as A) | – |
| Cc1ccccc1-n1ncc2c(O)nc(CN(C)CC(=O)N(C)c3ccccc3Cl)nc21 [Example 2, N-(2-chlorophenyl)-2-(((4-hydroxy-1-o-tolyl-1H-pyrazolo[3,4-d]pyrimidin-6-yl)methyl)(methyl)amino)-N-methylacetamide] | C (ΔTm GALC between 0.1 and 0.5 is shown as C) | – |
| Cc1cccc(-n2ncc3c(O)nc(CN(C)CC(=O)N(C)c4ccccc4Cl)nc32)c1 [Example 3, N-(2-chlorophenyl)-2-(((4-hydroxy-1-m-tolyl-1H-pyrazolo[3,4-d]pyrimidin-6-yl)methyl)(methyl)amino)-N-methylacetamide] | C (ΔTm GALC between 0.1 and 0.5 is shown as C) | – |
| Cc1ccc(-n2ncc3c(O)nc(CN(C)CC(=O)N(C)c4ccccc4Cl)nc32)cc1 [Example 4, N-(2-chlorophenyl)-2-(((4-hydroxy-1-p-tolyl-1H-pyrazolo[3,4-d]pyrimidin-6-yl)methyl)(methyl)amino)-N-methylacetamide] | B (ΔTm GALC between 0.5 and 1 is shown as B) | – |
| COc1ccccc1-n1ncc2c(O)nc(CN(C)CC(=O)N(C)c3ccccc3Cl)nc21 [Example 5, N-(2-chlorophenyl)-2-(((4-hydroxy-1-(2-methoxyphenyl)-1H-pyrazolo[3,4-d]pyrimidin-6-yl)methyl)(methyl)amino)-N-methylacetamide] | D (ΔTm GALC less than 0.1 is shown as D) | – |
| COc1cccc(-n2ncc3c(O)nc(CN(C)CC(=O)N(C)c4ccccc4Cl)nc32)c1 [Example 6, N-(2-chlorophenyl)-2-(((4-hydroxy-1-(3-methoxyphenyl)-1H-pyrazolo[3,4-d]pyrimidin-6-yl)methyl)(methyl)amino)-N-methylacetamide] | B (ΔTm GALC between 0.5 and 1 is shown as B) | – |
| COc1ccc(-n2ncc3c(O)nc(CN(C)CC(=O)N(C)c4ccccc4Cl)nc32)cc1 [Example 7, N-(2-chlorophenyl)-2-(((4-hydroxy-1-(4-methoxyphenyl)-1H-pyrazolo[3,4-d]pyrimidin-6-yl)methyl)(methyl)amino)-N-methylacetamide] | C (ΔTm GALC between 0.1 and 0.5 is shown as C) | – |
| CN(CC(=O)Nc1cccc(F)c1)Cc1nc2ccsc2c(=O)[nH]1 [Example 9, N-(3-fluorophenyl)-2-(methyl((4-oxo-3,4-dihydrothieno[3,2-d]pyrimidin-2-yl)methyl)amino)acetamide] | – | A (ΔTm GALC > 1 is shown as A) |
| CCN(CC(=O)Nc1cccc(OC)c1)Cc1nc2ccsc2c(=O)[nH]1 [Example 10, 2-(ethyl((4-oxo-3,4-dihydrothieno[3,2-d]pyrimidin-2-yl)methyl)amino)-N-(3-methoxyphenyl)acetamide] | – | C (ΔTm GALC between 0.1 and 0.5 is shown as C) |
| CCCN(CC(=O)Nc1ccc(F)cc1F)Cc1nc2ccsc2c(=O)[nH]1 [Example 11, N-(2,4-difluorophenyl)-2-(((4-oxo-3,4-dihydrothieno[3,2-d]pyrimidin-2-yl)methyl)(propyl)amino)acetamide] | – | B (ΔTm GALC between 0.5 and 1 is shown as B) |
| CN(CC(=O)Nc1ccccc1Cl)Cc1nc2ccsc2c(=O)[nH]1 [Example 12, N-(2-chlorophenyl)-2-(methyl((4-oxo-3,4-dihydrothieno[3,2-d]pyrimidin-2-yl)methyl)amino)acetamide] | – | B (ΔTm GALC between 0.5 and 1 is shown as B) |
| CCN(CC(=O)NC(C)(C)C)Cc1nc2ccsc2c(=O)[nH]1 [Example 13, N-(tert-butyl)-2-(ethyl((4-oxo-3,4-dihydrothieno[3,2-d]pyrimidin-2-yl)methyl)amino)acetamide] | – | D (ΔTm GALC less than 0.1 is shown as D) |
| Cc1csc(NC(=O)CN(C)Cc2nc3ccsc3c(=O)[nH]2)n1 [Example 14, 2-(methyl((4-oxo-3,4-dihydrothieno[3,2-d]pyrimidin-2-yl)methyl)amino)-N-(4-methylthiazol-2-yl)acetamide] | – | A (ΔTm GALC > 1 is shown as A) |
| CCCN(CC(=O)N1CCc2ccccc21)Cc1nc2ccsc2c(=O)[nH]1 [Example 15, 2-(((2-(indolin-1-yl)-2-oxoethyl)(propyl)amino)methyl)thieno[3,2-d]pyrimidin-4(3H)-one] | – | D (ΔTm GALC less than 0.1 is shown as D) |
| CCN(CC(=O)Nc1c(Cl)cccc1Cl)Cc1nc2ccccc2c(=O)[nH]1 [Example 16, N-(2,6-dichlorophenyl)-2-(ethyl((4-oxo-3,4-dihydroquinazolin-2-yl)methyl)amino)acetamide] | – | B (ΔTm GALC between 0.5 and 1 is shown as B) |
| COCCN(CC(=O)Nc1ccc(C)cc1)Cc1nc2ccccc2c(=O)[nH]1 [Example 17, 2-((2-methoxyethyl)((4-oxo-3,4-dihydroquinazolin-2-yl)methyl)amino)-N-(p-tolyl)acetamide] | – | B (ΔTm GALC between 0.5 and 1 is shown as B) |
| CN(CC(=O)Nc1cccc2ccccc12)Cc1nc2ccccc2c(=O)[nH]1 [Example 18, 2-(methyl((4-oxo-3,4-dihydroquinazolin-2-yl)methyl)amino)-N-(naphthalen-1-yl)acetamide] | – | A (ΔTm GALC > 1 is shown as A) |
| CCN(CC(=O)Nc1ccccc1)Cc1nc2ccccc2c(=O)[nH]1 [Example 19, 2-(ethyl((4-oxo-3,4-dihydroquinazolin-2-yl)methyl)amino)-N-phenylacetamide] | – | C (ΔTm GALC between 0.1 and 0.5 is shown as C) |
| CCN(CC(=O)Nc1ccccc1C)Cc1nc2ccccc2c(=O)[nH]1 [Example 20, 2-(ethyl((4-oxo-3,4-dihydroquinazolin-2-yl)methyl)amino)-N-(o-tolyl)acetamide] | – | B (ΔTm GALC between 0.5 and 1 is shown as B) |
| CN(CC(=O)Nc1cccc2ncccc12)Cc1nc2ccccc2c(=O)[nH]1 [Example 21, 2-(methyl((4-oxo-3,4-dihydroquinazolin-2-yl)methyl)amino)-N-(quinolin-5-yl)acetamide] | – | B (ΔTm GALC between 0.5 and 1 is shown as B) |
| CCN(CC(=O)Nc1ccccc1Cl)Cc1nc2ccccc2c(=O)[nH]1 [Example 22, N-(2-chlorophenyl)-2-(ethyl((4-oxo-3,4-dihydroquinazolin-2-yl)methyl)amino)acetamide] | – | C (ΔTm GALC between 0.1 and 0.5 is shown as C) |
| Cc1cccc(C)c1NC(=O)CN(C)Cc1nc2ccccc2c(=O)[nH]1 [Example 23, N-(2,6-dimethylphenyl)-2-(methyl((4-oxo-3,4-dihydroquinazolin-2-yl)methyl)amino)acetamide] | – | B (ΔTm GALC between 0.5 and 1 is shown as B) |
| O=C(Nc1ccccc1)C1CCCN1Cc1nc2ccccc2c(=O)[nH]1 (centres unmarked) [Example 24, 1-((4-oxo-3,4-dihydroquinazolin-2-yl)methyl)-N-phenylpyrrolidine-2-carboxamide] | – | B (ΔTm GALC between 0.5 and 1 is shown as B) |
| CCN(CC(=O)Nc1cccc2c1N=S=N2)Cc1nc2ccccc2c(=O)[nH]1 [Example 25, N-(benzo[c][1,2,5]thiadiazol-4-yl)-2-(ethyl((4-oxo-3,4-dihydroquinazolin-2-yl)methyl)amino)acetamide] | – | B (ΔTm GALC between 0.5 and 1 is shown as B) |
| CCN(CC(=O)NCC(C)C)Cc1nc2ccccc2c(=O)[nH]1 [Example 26, 2-(ethyl((4-oxo-3,4-dihydroquinazolin-2-yl)methyl)amino)-N-isobutylacetamide] | – | B (ΔTm GALC between 0.5 and 1 is shown as B) |
| CN(CC(=O)N(C)c1ccccc1)Cc1nc2ccccc2c(=O)[nH]1 [Example 27, N-methyl-2-(methyl((4-oxo-3,4-dihydroquinazolin-2-yl)methyl)amino)-N-phenylacetamide] | – | B (ΔTm GALC between 0.5 and 1 is shown as B) |

From patent publication US20230140216A1, “COMBINATION THERAPY FOR TREATING MPS1” (GAIN THERAPEUTICS SA, priority 2020, published 2023)
